Data on six compounds can be found in publication PMC6213206, “Cyclopropane-Containing Fatty Acids from the Marine Bacterium Labrenzia sp. 011 with Antimicrobial and GPR84 Activity” (Marine Drugs, 2018).

Usually EC50 stands for the concentration at which the effect is half-maximal. By Emax is commonly meant the size of the effect at its maximum, as opposed to the concentration needed.

The test system of one assay is Escherichia coli DSM 498. Nature of the assay: disc diffusion assay. It counts as cell-based. As to conditions: DSM498, 50 μg per disc, read-out: growth inhibition zone. Background: In agar diffusion tests the substance spreads into inoculated agar from a disc or well.
For assay [1], the system named is Eurotium rubrum DSM 62631. Briefly: disc diffusion assay. It counts as cell-based. To be noted: for zone of inhibition at 50 µg/disc: Aspergillus ruber, DSM62631, 50 μg per disc, read-out: growth inhibition zone. Here is the method:
(§1) Compounds 1 and 2 were tested against a range of microorganisms, namely the Gram-positive bacterium Bacillus megaterium DSM 32, the Gram-negative bacterium Escherichia coli JM 83 and Pseudoroseovarius crassostreae DSM 16950^T; the fungal organisms utilized were Eurotium rubrum DSM 62631, Microbotryum violaceum MB#110229, and Mycotypha microspora MB#271115. Tests were performed according to Reference. 50 μg of pure compounds or positive controls were taken from a solution of 1 mg/mL and applied on sterile paper discs on agar plates of the corresponding medium for each test organism. Multidrug-resistant pathogens Escherichia coli I-11276b, MRSA LT-1338, MRSA LT-1334 were tested with 4 μg of compound 2 in each disc. Thereafter, suspensions of the organisms were sprayed on the agar and incubated. Miconazole and streptomycin were used as positive controls. Inhibition zones were measured from the edge of the disc to the end of the area free of growth. Only total inhibition (>1 mm) was considered as a positive result.

Assay [2] has as its system Microbotryum violaceum MB#110229. Nature of the assay: disc diffusion assay. Format: cell-based. As to conditions: 50 μg per disc, read-out: growth inhibition zone. How it is done:
as §1

Assay [3] deals with Mycotypha microspora MB#271115. Briefly: disc diffusion assay. It counts as cell-based. To be noted: 50 μg per disc, read-out: growth inhibition zone. Here is the method: as §1
The subject of assay [4] is Pseudoroseovarius crassostreae DSM 16950T. Nature of the assay: disc diffusion assay. As to conditions: Aliiroseovarius crassostreae, DSM16950T, 50 μg per disc, read-out: growth inhibition zone. Format: cell-based. How it is done: as §1
The target in assay [5] is T1, human GPR84 (Homo sapiens, UniProt Q9NQS5).
T1 construct: CHO-hGPR84)
T1 sequence (Q9NQS5 whole entry): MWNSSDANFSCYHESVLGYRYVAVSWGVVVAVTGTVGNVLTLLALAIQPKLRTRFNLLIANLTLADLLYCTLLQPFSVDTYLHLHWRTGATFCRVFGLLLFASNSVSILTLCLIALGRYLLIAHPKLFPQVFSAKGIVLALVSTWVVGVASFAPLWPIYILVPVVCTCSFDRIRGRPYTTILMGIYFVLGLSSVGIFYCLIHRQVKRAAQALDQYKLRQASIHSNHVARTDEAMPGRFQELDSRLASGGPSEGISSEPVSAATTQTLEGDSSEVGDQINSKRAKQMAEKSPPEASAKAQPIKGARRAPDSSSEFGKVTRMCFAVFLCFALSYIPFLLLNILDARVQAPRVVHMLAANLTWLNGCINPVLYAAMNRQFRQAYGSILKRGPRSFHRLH
Nature of the assay: cAMP accumulation assay in CHO cells expressing human GPR84. To be noted: for activity in cAMP assay (in words): Gi-mediated signaling; for cAMP Assay percent receptor activation: at 100 μM, forskolin 10 μM; for EC50: read-out: cAMP Assay EC50 ± SD. Set-up: Emax: dose or concentration left out as unconfirmed. It counts as cell-based. The source says:
(§2) cAMP accumulation assays determined the potency of the test compounds to inhibit forskolin-induced cAMP accumulation in Chinese hamster ovary (CHO) cells, stably expressing human GPR84, whereas the β-arrestin recruitment assays used the enzyme complementation technology.
The recombinant CHO cell line expressing the human GPR84 (CHO-hGPR84) with a β-galactosidase fragment and β-arrestin containing the complementary fragment of the enzyme was purchased from DiscoverX (Fremont, CA, USA). This cell line was used for the β-arrestin recruitment assays as well as for cAMP accumulation assays. The CHO-hGPR84 cells were cultured in F12 medium supplemented with 10% FCS, 100 units/mL penicillin G, 100 μg/mL streptomycin, 800 μg/mL G 418, 300 μg/mL hygromycin B, and 1% ultraglutamin (Invitrogen, Carlsbad, CA or Sigma-Aldrich, St. Louis, MO, USA). Stock solutions of compounds were prepared in DMSO (final DMSO concentration: 1%). Data were analyzed using Graph Pad Prism version 6.0 (San Diego, CA, USA). Concentration-response data were fitted by nonlinear regression to estimate EC50 values.
cAMP assays were performed as previously described. CHO cells overexpressing the human GPR84 were stimulated with forskolin (10 μM) in the absence (control) or presence of test compound for 15 min. The reaction was stopped by the addition of hot (90 °C) lysis solution containing 4 mM EDTA and 0.01% Triton X-100 in water. cAMP levels were quantified by a radioactive assay using [³H]cAMP (Perkin-Elmer, Rodgau, Germany). The forskolin-induced change in cAMP concentration in the presence of the test compound was expressed as a percentage of the response to forskolin in the absence of agonist (% of control). Three independent experiments, each in duplicates were performed.
In general terms: Cyclic AMP is a second messenger, typically raised through Gs and lowered through Gi signalling.

Assay [6] concerns the target T1, human GPR84. Briefly: β-arrestin recruitment assay (β-galactosidase enzyme complementation) in CHO-hGPR84 cells. Format: cell-based. As to conditions: for EC50: n = 5, read-out: β-Arrestin Assay EC50 ± SD; for Emax: relative to maximal effect of full agonist embelin (10 μM) = 100%, read-out: β-Arrestin Assay Efficacy (Emax).
From the text: as §2
The recombinant CHO cell line expressing the human GPR84 (CHO-hGPR84) with a β-galactosidase fragment and β-arrestin containing the complementary fragment of the enzyme was purchased from DiscoverX (Fremont, CA, USA). This cell line was used for the β-arrestin recruitment assays as well as for cAMP accumulation assays. […] Stock solutions of compounds were prepared in DMSO (final DMSO concentration: 1%). Data were analyzed using Graph Pad Prism version 6.0 (San Diego, CA, USA). Concentration-response data were fitted by nonlinear regression to estimate EC50 values.
β-arrestin assays were performed as previously described. Briefly, CHO cells expressing the human GPR84 with a β-galactosidase fragment and β-arrestin containing the complementary fragment of the enzyme were incubated with a series of compound dilutions (in DMSO, final DMSO concentration: 1%) for 90 min before adding the detection reagent (DiscoverX®, Fremont, CA, USA). After 60 min of incubation at room temperature the luminescence was measured using an NXT plate reader (Perkin-Elmer, Rodgau, Germany). Three to five independent experiments were performed, each in duplicates.

For assay [7], the system named is Escherichia coli I-11276b. Briefly: disc diffusion assay, multidrug-resistant pathogen. As to conditions: I11276B; Escherichia coli I-11276b (multidrug-resistant); 4 μg per disc; read-out: growth inhibition zone. It counts as cell-based. How it is done: as §1
A further assay deals with MRSA LT-1334. Nature of the assay: disc diffusion assay, multidrug-resistant pathogen. It counts as cell-based. To be noted: Staphylococcus aureus; MRSA LT-1334 (multidrug-resistant); 4 μg per disc; read-out: growth inhibition zone. How it is done: as §1
For the next assay, the system named is MRSA LT-1338. Briefly: disc diffusion assay, multidrug-resistant pathogen. Format: cell-based. To be noted: Staphylococcus aureus; MRSA LT-1338 (multidrug-resistant); 4 μg per disc; read-out: growth inhibition zone. Here is the method:
as §1

The subject of assay [8] is Bacillus megaterium DSM 32. Nature of the assay: disc diffusion assay. It counts as cell-based. To be noted: Priestia megaterium, DSM32, 50 μg per disc, read-out: growth inhibition zone. Here is the method: as §1
For assay [9], the target named is T1, human GPR84. Set-up: method as in PMID 28406627. As to conditions: relative to maximal effect of full agonist decanoic acid (100 μM) = 100%; cited from earlier work.

The structures appear in SMILES notation.

Regarding `CCCCCC[C@H]1C[C@H]1CCCC(=O)O` (relative stereo) [Compound 1, cis-4-(2-hexylcyclopropyl)-butanoic acid], the zone of inhibition at 50 µg/disc in the assay with Escherichia coli DSM 498 was 2 mm; in assay [2], 8 mm; in assay [3] it was 3 mm; in assay [4], 5 mm. The growth inhibition zone entry in [1] (50 μg per disc) was “devoid of activity”. In addition, the “activity in cAMP assay (in words)” value at human GPR84 [5] was “inactive”. Besides, the “cAMP Assay percent receptor activation” value at human GPR84 [5] came out at 0%. Also, the EC50 on human GPR84 [5] was greater than 100 µM; on human GPR84 [6], greater than 30000 nM. Also, the “activity in β-arrestin assay (in words)” value on human GPR84 [6] is “inactive”. Besides, the “β-Arrestin Assay percent receptor activation” value on human GPR84 [6] (at 30 μM) came to 17%.

`CCCCCC[C@H]1C[C@H]1CC(=O)O` (relative stereo) [Compound 2, cis-2-(2-hexylcyclopropyl)-acetic acid]: the zone of inhibition at 50 µg/disc was 3 mm in the assay on Escherichia coli DSM 498; 10 mm in assay [8]; 10 mm in [1]; 10 mm in assay [2]; 6 mm in assay [3]; 5 mm in assay [4]. The zone of inhibition at 4 µg/disc in assay [7] amounted to 2 mm; in the assay on MRSA LT-1334, 3 mm; in the assay with MRSA LT-1338 it was 2 mm. For the same compound, on human GPR84 [5], the “activity in cAMP assay (in words)” value was “did neither induce nor block Gi-mediated signaling”. For the same compound, the “cAMP Assay percent receptor activation” value on human GPR84 [5] was determined as 24%. The EC50 on human GPR84 [5] is greater than 100 µM; on human GPR84 [6] it was 114 ± 135 nM. The “potency in β-arrestin assay relative to dodecanoic acid” value on human GPR84 [6] (fold more potent than dodecanoic acid (EC50 = 2.84 μM)) is reported as 25 fold. Further, the Emax at human GPR84 [6] stood at 54%.

With `CCCCCCCCCC(=O)O` [Decanoic acid], the “cAMP Assay Efficacy (Emax)” value on human GPR84 [9] was 100% [26].

With `CCCCCCCCCCCC(=O)O` [Dodecanoic acid, reference compound], the Emax at human GPR84 [5] (CHO, read-out: cAMP Assay Efficacy (Emax)) was determined as 94%; on human GPR84 [6] it was 95%. In addition, the EC50 was found to be 8.87 ± 4.46 µM at human GPR84 [5] and 2840 ± 540 nM on human GPR84 [6].

As for `Clc1ccc(COC(Cn2ccnc2)c2ccc(Cl)cc2Cl)c(Cl)c1` (stereo not shown) [Miconazole, reference compound], the results for the zone of inhibition at 50 µg/disc in assay [1], in assay [2] and in assay [3] were 8 mm, 6 mm and 9 mm, respectively.

For `[H]/N=C(/N)N[C@H]1[C@H](O)[C@@H](O)[C@H](O[C@@H]2O[C@@H](C)[C@](O)(C=O)[C@H]2O[C@@H]2O[C@@H](CO)[C@H](O)[C@@H](O)[C@@H]2NC)[C@@H](N/C(N)=N\[H])[C@@H]1O` [Streptomycin, reference compound], the values for the zone of inhibition at 50 µg/disc (in the assay with Escherichia coli DSM 498; in [8]; in [4]) were 6 mm, 9 mm and 6 mm, respectively.
